# Measurements from patent US9119846B2, “Method and composition for enhancing cognition in alzheimer's patients” (NEURIM PHARMACEUTICALS (1991) LTD., priority 2003, dated 2015).
# Columns and labels:
# Type in all cases: in vivo, human
# [1] = tested on: elderly insomnia patients; assay: Subjectively assessed quality of sleep (140 mm visual analog scale), randomized double-blind crossover study; conditions: controlled release 2 mg, 4 weeks, higher = better sleep
# Method: The effect of a controlled release formulation of melatonin on subjectively assessed sleep quality in 17 elderly insomnia patients (aged 66.9 (SD 5.4) years) were studied in a randomized, double-blind, crossover study. Basal excretion of the main melatonin metabolite 6-sulfatoxymentonin in urine over the nocturnal period (8 p.m.-8 a.m.) was measured and the subjects were treated for 1 week with placebo to establish baseline characteristics followed by a two-period crossover design (4 weeks on either melatonin controlled release 2 mg or placebo) separated by a washout period (1 week). On the last week of the baseline and treatment periods patients were asked to assess the quality of their sleep the previous night by ticking a 140 mm visual analog scale. The distance (in mm) of the patient mark from the left hand side of the scale was measured and a higher number indicated better sleep. The difference from placebo values in the patient evaluation of restful sleep was calculated for smoking and non-smoking patients. There were no significant differences in the amount of nocturnal 6-sulfatoxymentonin excreted by smokers and non-smokers in the study population (3.5+1.5 vs. 6.3+5 μg 6-sulfatoxymentonin, respectively). […] No difference was found in the response to placebo between the smokers and non-smokers.
# [2] = tested on: elderly insomnia patients; assay: Psychomotor performance (total reaction time, mean reaction time); conditions: 2 mg per night, 3 weeks
# Method: The effect of a controlled release formulation of melatonin on psychomotor performance (total reaction time, TRT, and Mean reaction time, MRT) in 40 elderly insomnia patients (aged 60.8 (SD 0.8) years) were studied. The subjects were treated for 2 weeks with placebo (baseline) and 3 weeks with 2 mg per night of controlled release melatonin. On the last two days of treatment psychomotor tests were taken by all patients to assess daytime vigilance.
# elderly volunteers = assay: Memory recall (Rivermead story test), crossover study; conditions: for Difference in recalls under melatonin and placebo / Mean number of recalled elements of the story: 2 hours after intake; for Mean number of recalled elements of the story: 2 mg controlled release
# Method: The effect of melatonin (2 mg controlled release formulation) and placebo on memory recall (Rivermead story test) were assessed in 16 elderly volunteers (>55 years; aged 59 (SD 3.2) years). In a randomised, double-blind, crossover study the subjects were given a tablet of placebo in the evening to establish baseline and then a tablet of melatonin or placebo in a random order in the evening with one week with no treatment in between treatments. The Rivermead test was given to the patients at 2 and 12.5 hours after the administration of the tablet. […] Memory efficiency is increased with controlled release 2 mg melatonin for both recalls (immediate and delayed) in the subjects who were smoking or ceased smoking within the last 6 months prior to the study than non-smokers compared to baseline or crossover placebo.
# [3] = tested on: mixed age insomnia patients; assay: Leeds Sleep Evaluation Questionnaire sleep quality, responder rate; conditions: 1 mg per night, 3 weeks
# Method: The effects of a controlled release formulation of melatonin on subjectively assessed sleep quality were studied in a mixed age insomnia patients population (aged 20-80 years). The subjects were treated for 1 week with placebo to establish baseline characteristics and then for 3 weeks with 1 mg per night of controlled release melatonin or placebo. On the last three days of the baseline and treatment periods patients were asked to assess the quality of their sleep the previous night using the Leeds Sleep Evaluation Questionnaire (Parrott, A. C. and I. Hindmarch (1980). “The Leeds sleep evaluation questionnaire in psychopharmacological investigations—a review.” Psychopharmacology (Berl) 71(2): 173-9) which comprises two 100 mm visual analog scales relating to sleep quality. The distance of the patient mark from the right hand side in mm was measured and the mean answer of the two questions was averaged across the 3 consecutive nights. A responder was defined as a patient showing improvement of 10 mm or more on the averaged value. […] There was no difference in responder rate to placebo between the smokers (46%, n=13) and non-smokers groups (44% n=53, p=0.89, chi-square test).
smiles,measurement,setting,value
COc1ccc2[nH]cc(CCNC(C)=O)c2c1 [melatonin],Mean change (in mm) in perceived quality of sleep with melatonin over placebo,[1]; Non smokers (n = 4),−2.8 mm
same,Mean change (in mm) in perceived quality of sleep with melatonin over placebo,[1]; Smokers (n = 10),15 mm
same,"improvement in psychomotor skills, MRT",[2]; non-smokers,0.00062 s
same,"improvement in psychomotor skills, TRT",[2]; non-smokers,-5.21 ms
same,"improvement in psychomotor skills, MRT",[2]; smokers,-0.03607 s
same,"improvement in psychomotor skills, TRT",[2]; smokers,-38.95 ms
same,memory tasks in the first hours of administration over the respective placebo values,"elderly volunteers; 2 mg controlled release formulation, single administration",improvement of memory tasks
same,Difference in recalls under melatonin and placebo,elderly volunteers; Non-smokers (n = 12),−2.41
same,Mean number of recalled elements of the story,elderly volunteers; Non-smokers (n = 12),9.8
same,Difference in recalls under melatonin and placebo,elderly volunteers; Smokers (n = 4),3.5
same,Mean number of recalled elements of the story,elderly volunteers; Smokers (n = 4),14.8
same,rate of responders (improvement of 10 mm or more),"[3]; non-smokers, n=43",40%
same,rate of responders (improvement of 10 mm or more),"[3]; smokers, n=16",62%
